From article PMC5937893, “Heat-stable sublingual oxytocin tablets as a potential needle-free approach for preventing postpartum hemorrhage in low-resource settings” (Drug Delivery and Translational Research, 2018)

What was measured:
Saliva stability study = assay type: in vitro ADME; conditions: pooled human saliva, 37 °C, 1 hour, HPLC, content at 1 hour divided by content at time zero, two aliquots per time point
Procedure: Since the oxytocin FDTs are intended to be administered under the tongue, we confirmed the stability of oxytocin in saliva prior to initiation of the pharmacokinetic study. The FDTs were incubated in pooled human saliva maintained at 37 °C for an hour along with unformulated oxytocin as a control. […]
the resting TEER measurement from the final TEER measurement. A reduction in the TEER indicates increased permeability of oral tissue after treatment.
Disintegration testing: Non-sink method
50, 60, 90 seconds) for complete disintegration. […]
aliquoted into four different vials. […]
immediately. […] The other two
HPLC mobile phase liquid and centrifuged immediately. The supernatants were loaded for HPLC analysis at the […]
1-hour divided by the content at time zero.
Test material Route of administration (IU/animal) Dose administered
Formulation 4 Sublingual 600 1 tablet
Formulation 4 Sublingual 400 1 tablet
Control Intramuscular 20 1 mL of 20 IU/mL
The FDTs were administered […]
once on days 1, 3, 8, 15, and 18. […]
aid in dissolution of the tablet. […]
right hind limb (biceps femoris) once on day 22.

[1] = in vivo
Procedure: (§1) Next, a crossover pharmacokinetic study with 24-h washout was conducted to determine oxytocin plasma levels after SL administration and to compare with the standard IM route in female mini pigs, chosen due to the similarity in oral cavity architecture with humans. Ten anesthetized female, non-pregnant Yucatan miniature swine, Sus scrofa 3 to 5 months old and weighing 15 to 20 kg were administered an oxytocin FDT under the tongue. For the control, mini pigs received 20 IU of oxytocin in a 1 mL IM injection into the right hind limb. […] Blood was collected from both groups at several time points up to 60 min after administration, via previously implanted vascular access ports, and plasma was obtained for analysis. A commercial enzyme-linked immunosorbent assay kit was used to detect oxytocin in the plasma.
(§2) The pharmacokinetic data were derived from ten non-pregnant female Yucatan miniature swine, Sus scrofa, aged 3
(§3) to 5 months, weighing 15 to 20 kg (Sinclair Bio-Resources, LLC, Auxvasse, MO, USA). Ten experimental pigs
(§4) received a sublingual (SL) tablet with 400 IU of oxytocin, and ten received SL tablets with 600 IU oxytocin. Ten
(§5) control pigs received 20 IU of oxytocin in a 1 mL intramuscular (IM) injection.
(§6) Animals were anesthetized with dexmedetomidine (0.04 mg/kg) mixed with midazolam (0.2 mg/kg), and anesthesia […]

[2] = set-up: method as in earlier work; conditions: women, buccal route, levels greater than 1000 IU, induction of labor; ref [10]; cited from earlier work
in vivo = conditions: female, Yucatan miniature swine, pig, im, 20 IU
Procedure: as §1, §2, §3, §4, §5, §6

CC[C@H](C)[C@@H]1NC(=O)[C@H](Cc2ccc(O)cc2)NC(=O)[C@@H](N)CSSC[C@@H](C(=O)N2CCC[C@H]2C(=O)N[C@@H](CC(C)C)C(=O)NCC(N)=O)NC(=O)[C@H](CC(N)=O)NC(=O)[C@H](CCC(N)=O)NC1=O [oxytocin]
Proteolytic degradation of oxytocin in saliva (Saliva stability study): none to minimal proteolytic degradation | Plasma levels of oxytocin in unanesthetized versus anesthetized pigs [1]: significantly higher | Adverse events [2]: without any adverse events | Cmax (in vivo): 0.612 ng/mL
